Our source for the Emax and EC50 values is US20260176320A1, “MODULATORS OF G-PROTEIN COUPLED RECEPTORS” (priority 2018, published 2026).

Like-named read-outs stand apart in the source and are kept apart here. Numbered stars: 1 amine (or outer) side, 2 acyl side, 3 side chain; on linkers, the order of the positions; unused ones are H or OH. Square brackets hold non-standard residues; d marks the D form. Side chains are listed from the residue outwards. Peptide text beside a SMILES is read from it. * marks the point of attachment. γGlu = O=C(O)[C@H](CCC(=O)[*:2])N[*:1]; X2 = O=C(CSCC(=O)*)NCCN1C(=O)CSC1=O; Palmitoyl = CCCCCCCCCCCCCCCC(=O)*; Aib = CC(C)(N)C(=O)O

In one experiment the target is T1, GIP-R (Homo sapiens, UniProt P48546).
T1 sequence (P48546 22-466): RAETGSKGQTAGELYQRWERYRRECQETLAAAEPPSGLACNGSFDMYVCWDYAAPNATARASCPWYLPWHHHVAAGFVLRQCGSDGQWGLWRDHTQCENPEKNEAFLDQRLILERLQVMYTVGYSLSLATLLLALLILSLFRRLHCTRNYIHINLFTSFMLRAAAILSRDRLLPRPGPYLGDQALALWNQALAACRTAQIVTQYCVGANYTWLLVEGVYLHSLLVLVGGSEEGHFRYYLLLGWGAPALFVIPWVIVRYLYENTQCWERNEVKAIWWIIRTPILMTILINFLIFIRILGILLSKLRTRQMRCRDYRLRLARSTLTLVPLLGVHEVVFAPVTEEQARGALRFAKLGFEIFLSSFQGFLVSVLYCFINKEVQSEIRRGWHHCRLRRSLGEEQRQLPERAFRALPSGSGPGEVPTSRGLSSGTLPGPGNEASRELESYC
Description: HitHunter cAMP assay (GIP-R). Conditions: cAMP; for Emax: read-out: (Emax) GIP-R. It counts as cell-based. Summed up:
(§1)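 Cells were resuspended in HBSS plus HEPES, IBMX (625 μM) and BSA, then dispensed with antibody at 10,000 per well. Agonists followed as 22-point twofold series, 30 min at room temperature. Antibody reagent and detection steps ran 1 h and overnight in the dark before luminescence.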
A general note: Cyclic AMP is a second messenger, typically raised through Gs and lowered through Gi signalling.

The target in another experiment is GLP-1R (Homo sapiens, UniProt P43220). Description: HitHunter cAMP assay (GLP-1R). The following applies: cAMP; for Emax: read-out: (Emax) GLP-1R. It counts as cell-based. In short, it runs like this: as §1
GLP-1R, sequence (P43220 24-463): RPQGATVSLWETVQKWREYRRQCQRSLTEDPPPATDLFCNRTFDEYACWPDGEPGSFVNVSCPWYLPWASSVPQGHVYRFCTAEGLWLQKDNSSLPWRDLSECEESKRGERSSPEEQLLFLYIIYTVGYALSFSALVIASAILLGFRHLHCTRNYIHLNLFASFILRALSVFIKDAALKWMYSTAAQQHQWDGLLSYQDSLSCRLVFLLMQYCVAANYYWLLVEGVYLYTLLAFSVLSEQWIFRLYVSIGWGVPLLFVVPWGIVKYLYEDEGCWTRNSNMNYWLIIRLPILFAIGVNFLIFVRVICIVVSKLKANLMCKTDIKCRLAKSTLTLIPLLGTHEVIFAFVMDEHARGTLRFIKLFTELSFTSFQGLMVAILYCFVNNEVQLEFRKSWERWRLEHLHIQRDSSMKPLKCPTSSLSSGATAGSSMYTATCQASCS
The mark [1] stands for this setting: Table 3A, read-out: EC50 GLP-1R/nM.

Consider `CCCCCCCCCCCCCCCC(=O)N[C@@H](CCC(=O)NCCCC[C@H](NC(=O)[C@H](CO)NC(=O)[C@@H]1CCCN1C(=O)[C@@H]1CCCN1C(=O)[C@@H]1CCCN1C(=O)[C@H](C)NC(=O)CNC(=O)[C@H](CO)NC(=O)[C@H](CO)NC(=O)[C@@H]1CCCN1C(=O)CNC(=O)CNC(=O)[C@H](C)NC(=O)[C@H](CC(C)C)NC(=O)[C@H](CC(C)C)NC(=O)[C@H](Cc1c[nH]c2ccccc12)NC(=O)[C@H](CC(N)=O)NC(=O)[C@@H](NC(=O)[C@H](Cc1ccccc1)NC(=O)[C@H](CCC(=O)O)NC(=O)C(C)(C)NC(=O)[C@H](C)NC(=O)[C@H](C)NC(=O)[C@H](CCC(N)=O)NC(=O)[C@H](CCCCN)NC(=O)[C@H](CC(=O)O)NC(=O)[C@H](CC(C)C)NC(=O)[C@H](Cc1ccc(O)cc1)NC(=O)[C@@H](NC(=O)[C@H](CO)NC(=O)[C@H](Cc1ccc(O)cc1)NC(=O)[C@H](CC(=O)O)NC(=O)[C@H](CO)NC(=O)[C@@H](NC(=O)[C@H](Cc1ccccc1)NC(=O)[C@@H](NC(=O)CNC(=O)[C@H](CCC(=O)O)NC(=O)CSCC(=O)NCCC1=CCCC1)[C@@H](C)O)[C@@H](C)O)[C@@H](C)CC)C(C)C)C(N)=O)C(=O)O` [Compound 54], for which the maximum response (Emax) at 1 µM at GIP-R (read-out: (Emax) GIP-R at 1 μM, Table 3, at 1 μM) was found to be 6%. Further, the Emax at GLP-1R (Table 3) and on GLP-1R (Table 3A) was 107% in each case. For the same compound, the EC50 is < 0.1 nM on GLP-1R (Table 3, read-out: EC50 GLP-1R/nM) and < 0.1 nM at GLP-1R (setting [1]).

For `CCCCCCCCCCCCCCCC(=O)N[C@@H](CCC(=O)NCCCC[C@H](NC(=O)[C@H](CO)NC(=O)[C@@H]1CCCN1C(=O)[C@@H]1CCCN1C(=O)[C@@H]1CCCN1C(=O)[C@H](C)NC(=O)CNC(=O)[C@H](CO)NC(=O)[C@H](CO)NC(=O)[C@@H]1CCCN1C(=O)CNC(=O)CNC(=O)[C@H](C)NC(=O)[C@H](CC(C)C)NC(=O)[C@H](CC(C)C)NC(=O)[C@H](Cc1c[nH]c2ccccc12)NC(=O)[C@H](CC(N)=O)NC(=O)[C@@H](NC(=O)[C@H](Cc1ccccc1)NC(=O)[C@H](CCC(=O)O)NC(=O)C(C)(C)NC(=O)[C@H](C)NC(=O)[C@H](C)NC(=O)[C@H](CCC(N)=O)NC(=O)[C@H](CCCCN)NC(=O)[C@H](CC(=O)O)NC(=O)[C@H](CC(C)C)NC(=O)[C@H](Cc1ccc(O)cc1)NC(=O)[C@@H](NC(=O)[C@H](CO)NC(=O)[C@H](Cc1ccc(O)cc1)NC(=O)[C@H](CC(=O)O)NC(=O)[C@H](CO)NC(=O)[C@@H](NC(=O)[C@H](Cc1ccccc1)NC(=O)[C@@H](NC(=O)CNC(=O)[C@H](CCC(=O)O)NC(=O)CSCC(=O)NCCN1C(=O)CCC(c2ccccc2)C1=O)[C@@H](C)O)[C@@H](C)O)[C@@H](C)CC)C(C)C)C(N)=O)C(=O)O` (mixture of isomers) [Compound 95], the EC50 on GIP-R (EC50 GIP-R/nM, Table 3) lay in the range of 1 to 10 nM; at GIP-R (EC50 GIP-R/nM, Table 3A) it was 10 to 100 nM; at GLP-1R (EC50 GLP-1R/nM, Table 3), 10 to 100 nM; at GLP-1R (EC50 GLP-1R/nM, Table 3A) it was 10 to 100 nM. Besides, the Emax was 20% on GIP-R (Table 3), 20% on GIP-R (Table 3A), 84% on GLP-1R (Table 3) and 84% at GLP-1R (Table 3A).

`CCCCCCCCCCCCCCCC(=O)N[C@@H](CCC(=O)NCCCC[C@H](NC(=O)CNC(=O)[C@H](CCCNC(=N)N)NC(=O)CNC(=O)[C@H](C)NC(=O)[C@H](CC(C)C)NC(=O)[C@H](CC(C)C)NC(=O)[C@H](Cc1c[nH]c2ccccc12)NC(=O)[C@H](CC(N)=O)NC(=O)[C@@H](NC(=O)[C@H](Cc1ccccc1)NC(=O)[C@H](CCC(=O)O)NC(=O)C(C)(C)NC(=O)[C@H](C)NC(=O)[C@H](C)NC(=O)[C@H](CCC(N)=O)NC(=O)[C@H](CCCCN)NC(=O)[C@H](CC(=O)O)NC(=O)[C@H](CC(C)C)NC(=O)[C@H](Cc1ccc(O)cc1)NC(=O)[C@@H](NC(=O)[C@H](CO)NC(=O)[C@H](Cc1ccc(O)cc1)NC(=O)[C@H](CC(=O)O)NC(=O)[C@H](CO)NC(=O)[C@@H](NC(=O)[C@H](Cc1ccccc1)NC(=O)[C@@H](NC(=O)CNC(=O)[C@H](CCC(=O)O)NC(=O)CSCC(=O)NCCN1C(=O)CSC1=O)[C@@H](C)O)[C@@H](C)O)[C@@H](C)CC)C(C)C)C(=O)NCC(=O)N1CCC[C@H]1C(=O)N[C@@H](CO)C(=O)N[C@@H](CO)C(=O)NCC(=O)N[C@@H](C)C(=O)N1CCC[C@H]1C(=O)N1CCC[C@H]1C(=O)N1CCC[C@H]1C(=O)N[C@@H](CO)C(N)=O)C(=O)O` [Compound 198] (X2-EGTFTSDYSIYLDKQAA[Aib]EFVNWLLAGRGK([γGlu-Palmitoyl])GPSSGAPPPS-NH2): the figures for the Emax at GIP-R (Table 3A) and on GLP-1R (Table 3A) were 81% and 95%, respectively. The EC50 on GIP-R (Table 3A, read-out: EC50 GIP-R/nM) was in the range of 10 to 100 nM; at GLP-1R (setting [1]), 10 to 100 nM.

With `CCCCCCCCCCCCCCCC(=O)N[C@@H](CCC(=O)NCCCC[C@H](NC(=O)[C@H](CO)NC(=O)[C@@H]1CCCN1C(=O)[C@@H]1CCCN1C(=O)[C@@H]1CCCN1C(=O)[C@H](C)NC(=O)CNC(=O)[C@H](CO)NC(=O)[C@H](CO)NC(=O)[C@@H]1CCCN1C(=O)CNC(=O)CNC(=O)[C@H](C)NC(=O)[C@H](CC(C)C)NC(=O)[C@H](CC(C)C)NC(=O)[C@H](Cc1c[nH]c2ccccc12)NC(=O)[C@H](CC(N)=O)NC(=O)[C@@H](NC(=O)[C@H](Cc1ccccc1)NC(=O)[C@H](CCC(=O)O)NC(=O)C(C)(C)NC(=O)[C@H](C)NC(=O)[C@H](C)NC(=O)[C@H](CCC(N)=O)NC(=O)[C@H](CCCCN)NC(=O)[C@H](CC(=O)O)NC(=O)[C@H](CC(C)C)NC(=O)[C@H](Cc1ccc(O)cc1)NC(=O)[C@@H](NC(=O)[C@H](CO)NC(=O)[C@H](Cc1ccc(O)cc1)NC(=O)[C@H](CC(=O)O)NC(=O)[C@H](CO)NC(=O)[C@@H](NC(=O)[C@H](Cc1ccccc1)NC(=O)[C@@H](NC(=O)CNC(=O)[C@H](CCC(=O)O)NC(=O)CSCC(=O)NCCN1C(=O)[C@@H]2CC[C@H]1C2)[C@@H](C)O)[C@@H](C)O)[C@@H](C)CC)C(C)C)C(N)=O)C(=O)O` [Compound 291], the EC50 on GIP-R (EC50 GIP-R/nM, Table 3A) fell in the range of 1 to 10 nM; on GLP-1R (EC50 GLP-1R/nM, Table 3A), 0.1 to 1 nM. Besides, the Emax was determined as 60% at GIP-R (Table 3A) and 100% at GLP-1R (Table 3A).

Regarding `CCCCCCCCCCCCCCCC(=O)N[C@@H](CCC(=O)NCCCC[C@H](NC(=O)[C@H](CO)NC(=O)[C@@H]1CCCN1C(=O)[C@@H]1CCCN1C(=O)[C@@H]1CCCN1C(=O)[C@H](C)NC(=O)CNC(=O)[C@H](CO)NC(=O)[C@H](CO)NC(=O)[C@@H]1CCCN1C(=O)CNC(=O)CNC(=O)[C@H](C)NC(=O)[C@H](CC(C)C)NC(=O)[C@H](CC(C)C)NC(=O)[C@H](Cc1c[nH]c2ccccc12)NC(=O)[C@H](CC(N)=O)NC(=O)[C@@H](NC(=O)[C@H](Cc1ccccc1)NC(=O)[C@H](CCC(=O)O)NC(=O)C(C)(C)NC(=O)[C@H](C)NC(=O)[C@H](C)NC(=O)[C@H](CCC(N)=O)NC(=O)[C@H](CCCCN)NC(=O)[C@H](CC(=O)O)NC(=O)[C@H](CC(C)C)NC(=O)[C@H](Cc1ccc(O)cc1)NC(=O)[C@@H](NC(=O)[C@H](CO)NC(=O)[C@H](Cc1ccc(O)cc1)NC(=O)[C@H](CC(=O)O)NC(=O)[C@H](CO)NC(=O)[C@@H](NC(=O)[C@H](Cc1ccccc1)NC(=O)[C@@H](NC(=O)CNC(=O)[C@H](CCC(=O)O)NC(=O)CSCC(=O)NCCN1C(=O)[C@H]2CC[C@@H]1C2)[C@@H](C)O)[C@@H](C)O)[C@@H](C)CC)C(C)C)C(N)=O)C(=O)O` [Compound 289], the EC50 on GIP-R (EC50 GIP-R/nM, Table 3A) is 10 to 100 nM; at GLP-1R (EC50 GLP-1R/nM, Table 3A), < 0.1 nM. Moreover, the Emax on GIP-R (Table 3A) is 20%; on GLP-1R (Table 3A) it was 100%.

As to `CCCCCCCCCCCCCCCC(=O)N[C@@H](CCC(=O)NCCCC[C@H](NC(=O)[C@H](CO)NC(=O)[C@@H]1CCCN1C(=O)[C@@H]1CCCN1C(=O)[C@@H]1CCCN1C(=O)[C@H](C)NC(=O)CNC(=O)[C@H](CO)NC(=O)[C@H](CO)NC(=O)[C@@H]1CCCN1C(=O)CNC(=O)CNC(=O)[C@H](C)NC(=O)[C@H](CC(C)C)NC(=O)[C@H](CC(C)C)NC(=O)[C@H](Cc1c[nH]c2ccccc12)NC(=O)[C@H](CC(N)=O)NC(=O)[C@@H](NC(=O)[C@H](Cc1ccccc1)NC(=O)[C@H](CCC(=O)O)NC(=O)C(C)(C)NC(=O)[C@H](C)NC(=O)[C@H](C)NC(=O)[C@H](CCC(N)=O)NC(=O)[C@H](CCCCN)NC(=O)[C@H](CC(=O)O)NC(=O)[C@H](CC(C)C)NC(=O)[C@H](Cc1ccc(O)cc1)NC(=O)[C@@H](NC(=O)[C@H](CO)NC(=O)[C@H](Cc1ccc(O)cc1)NC(=O)[C@H](CC(=O)O)NC(=O)[C@H](CO)NC(=O)[C@@H](NC(=O)[C@H](Cc1ccccc1)NC(=O)[C@@H](NC(=O)CNC(=O)[C@H](CCC(=O)O)NC(=O)CSCC(=O)NCCN1C(=O)[C@H](C)C[C@H](C)C1=O)[C@@H](C)O)[C@@H](C)O)[C@@H](C)CC)C(C)C)C(N)=O)C(=O)O` [Compound 88], the EC50 was 1 to 10 nM at GIP-R (EC50 GIP-R/nM, Table 3); 1 to 10 nM at GIP-R (EC50 GIP-R/nM, Table 3A); 1 to 10 nM on GLP-1R (EC50 GLP-1R/nM, Table 3); 1 to 10 nM on GLP-1R (EC50 GLP-1R/nM, Table 3A). Further, the Emax on GIP-R (Table 3) was found to be 102%; on GIP-R (Table 3A), 102%; at GLP-1R (Table 3), 108%; on GLP-1R (Table 3A), 108%.

Usually Emax stands for the greatest response seen or fitted, relative to the assay's reference.
